Reference: patent publication US9796711B2, “Substituted pyrazolo[3,4-b]pyridin-6-carboxylic acids and method of use” (AbbVie S.àr.l., priority 2015, dated 2017)

Experiments:
[1] = target: T1, ΔF508-CFTR (Homo sapiens, UniProt P13569, DEL508-508); assay: CFTR cell surface levels using HRP-tagged ΔF508-CFTR expressing CFBE cells, in the presence of a co-corrector; assay type: cell-based; settings: HRP-tagged ΔF508-CFTR expressing CFBE cells, in the presence of 3 μM co-corrector; for EC50: read-out: EC50
T1 construct: host or cells: CFBE41o-, doxycycline-inducible
T1 sequence (P13569 with tags, fused parts or gaps DEL508-508): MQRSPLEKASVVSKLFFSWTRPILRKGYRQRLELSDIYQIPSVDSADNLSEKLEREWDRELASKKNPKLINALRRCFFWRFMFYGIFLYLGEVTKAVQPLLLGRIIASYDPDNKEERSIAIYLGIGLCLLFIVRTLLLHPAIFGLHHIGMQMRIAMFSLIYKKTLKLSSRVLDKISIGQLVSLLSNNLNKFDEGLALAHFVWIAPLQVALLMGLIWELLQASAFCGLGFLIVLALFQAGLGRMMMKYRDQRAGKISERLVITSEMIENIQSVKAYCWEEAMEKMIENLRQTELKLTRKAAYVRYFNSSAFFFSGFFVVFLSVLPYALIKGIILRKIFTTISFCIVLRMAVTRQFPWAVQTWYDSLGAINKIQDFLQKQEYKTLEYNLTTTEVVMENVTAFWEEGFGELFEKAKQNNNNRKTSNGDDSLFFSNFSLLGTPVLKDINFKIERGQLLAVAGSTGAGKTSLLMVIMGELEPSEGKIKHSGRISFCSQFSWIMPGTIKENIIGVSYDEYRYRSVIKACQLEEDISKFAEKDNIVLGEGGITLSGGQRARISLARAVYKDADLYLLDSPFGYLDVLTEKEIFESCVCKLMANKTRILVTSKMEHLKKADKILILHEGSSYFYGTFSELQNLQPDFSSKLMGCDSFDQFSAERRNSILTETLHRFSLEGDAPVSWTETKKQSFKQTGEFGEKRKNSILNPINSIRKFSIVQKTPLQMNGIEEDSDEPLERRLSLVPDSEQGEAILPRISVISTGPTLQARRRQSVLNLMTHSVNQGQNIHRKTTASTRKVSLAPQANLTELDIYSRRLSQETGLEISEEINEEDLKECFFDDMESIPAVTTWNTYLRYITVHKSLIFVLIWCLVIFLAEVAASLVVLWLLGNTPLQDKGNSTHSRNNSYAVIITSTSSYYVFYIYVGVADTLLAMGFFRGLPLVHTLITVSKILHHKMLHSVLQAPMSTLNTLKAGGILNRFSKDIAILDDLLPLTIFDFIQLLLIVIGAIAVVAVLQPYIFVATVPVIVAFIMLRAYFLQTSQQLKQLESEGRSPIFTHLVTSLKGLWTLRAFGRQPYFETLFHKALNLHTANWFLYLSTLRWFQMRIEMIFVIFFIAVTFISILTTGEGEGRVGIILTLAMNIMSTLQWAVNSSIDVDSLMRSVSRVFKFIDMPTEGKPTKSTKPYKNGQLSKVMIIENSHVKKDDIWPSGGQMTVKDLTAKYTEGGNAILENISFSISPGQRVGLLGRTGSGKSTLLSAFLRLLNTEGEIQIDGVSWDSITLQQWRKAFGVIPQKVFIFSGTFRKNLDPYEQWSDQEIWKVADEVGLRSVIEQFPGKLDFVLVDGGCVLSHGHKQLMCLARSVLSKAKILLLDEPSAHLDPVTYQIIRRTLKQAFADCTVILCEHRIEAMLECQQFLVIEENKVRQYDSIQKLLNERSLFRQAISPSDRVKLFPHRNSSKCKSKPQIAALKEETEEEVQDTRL
Outline: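 Cells were seeded with 0.5 μg/mL doxycycline and held 68 h at 37 °C. Test compounds plus 3 μM co-corrector (final 0.1% DMSO) were then added for 20 h at 33 °C. Washed cells received HRP substrate, and luminescence was normalized between DMSO and 3 μM co-corrector controls.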

[2] = target: T1, ΔF508-CFTR; assay: CFTR cell surface levels using HRP-tagged ΔF508-CFTR expressing CFBE cells, intrinsic corrector capacity; assay type: cell-based; settings: HRP-tagged ΔF508-CFTR expressing CFBE cells, intrinsic corrector capacity (no co-corrector), 33° C., 20 hours; for EC50: read-out: EC50
Outline: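 Here the cells express ΔF508-CFTR with horseradish peroxidase inserted in extracellular loop 4, so only rescued channel at the surface gives luminescent signal. Compounds act on their own, 20 h at the reduced temperature of 33 °C; values are percent activity relative to DMSO and a 3 μM corrector.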

| SMILES | % Activation [1] [%] | EC50 [1] [nM] | % Activation [2] [%] | EC50 [2] [nM] |
| --- | --- | --- | --- | --- |
| O=C(O)c1cc(N2CCC(N3CCOCC3)CC2)c2c(C3CCC3)nn(-c3ccc(C(F)(F)F)cc3)c2n1 [compound 823, 3-cyclobutyl-4-[4-(morpholin-4-yl)piperidin-1-yl]-1-[4-(trifluoromethyl)phenyl]-1H-pyrazolo[3,4-b]pyridine-6-carboxylic acid] | 375.2 | 147 | 188.7 | 258 |
| Cc1cc(-n2nc(C3CCC3)c3c(N4CCC(N5CCOCC5)CC4)cc(C(=O)O)nc32)ccc1F [compound 824, 3-cyclobutyl-1-(4-fluoro-3-methylphenyl)-4-[4-(morpholin-4-yl)piperidin-1-yl]-1H-pyrazolo[3,4-b]pyridine-6-carboxylic acid] | 535.65 | 277 | 338.9 | 180 |
| O=C(O)c1cc(N2CCC(N3CCOCC3)CC2)c2c(C3CCC3)nn(-c3cccc(F)c3)c2n1 [compound 825, 3-cyclobutyl-1-(3-fluorophenyl)-4-[4-(morpholin-4-yl)piperidin-1-yl]-1H-pyrazolo[3,4-b]pyridine-6-carboxylic acid] | 455.85 | 144 | 289 | 207 |
| O=C(O)c1cc(N2CCC(N3CCOCC3)CC2)c2c(C3CCC3)nn(-c3cccc(C(F)(F)F)c3)c2n1 [compound 826, 3-cyclobutyl-4-[4-(morpholin-4-yl)piperidin-1-yl]-1-[3-(trifluoromethyl)phenyl]-1H-pyrazolo[3,4-b]pyridine-6-carboxylic acid] | 528.15 | 102 | 314.4 | 157 |
| O=C(O)c1cc(N2CCC(CN3CC(F)C3)CC2)c2c(C3CCC3)nn(-c3ccccc3)c2n1 [compound 827, 3-cyclobutyl-4-{4-[(3-fluoroazetidin-1-yl)methyl]piperidin-1-yl}-1-phenyl-1H-pyrazolo[3,4-b]pyridine-6-carboxylic acid] | 453.25 | 93 | 265.4 | 257 |
| O=C(O)c1cc(N2CCC(CN3CCC(F)(F)C3)CC2)c2c(C3CCC3)nn(-c3ccccc3)c2n1 [compound 828, 3-cyclobutyl-4-{4-[(3,3-difluoropyrrolidin-1-yl)methyl]piperidin-1-yl}-1-phenyl-1H-pyrazolo[3,4-b]pyridine-6-carboxylic acid] | 518.35 | 47.9 | 283.5 | 83.2 |
| COC1CN(CC2CCN(c3cc(C(=O)O)nc4c3c(C3CCC3)nn4-c3ccccc3)CC2)C1 [compound 829, 3-cyclobutyl-4-{4-[(3-methoxyazetidin-1-yl)methyl]piperidin-1-yl}-1-phenyl-1H-pyrazolo[3,4-b]pyridine-6-carboxylic acid] | 411.7 | 344 | 170.7 | 381 |
| O=C(O)c1cc(N2CCC(CN3CCCC(F)(F)C3)CC2)c2c(C3CCC3)nn(-c3ccccc3)c2n1 [compound 830, 3-cyclobutyl-4-{4-[(3,3-difluoropiperidin-1-yl)methyl]piperidin-1-yl}-1-phenyl-1H-pyrazolo[3,4-b]pyridine-6-carboxylic acid] | 588.2 | 63.2 | 353.9 | 115 |
| COCC1CN(CC2CCN(c3cc(C(=O)O)nc4c3c(C3CCC3)nn4-c3ccccc3)CC2)C1 [compound 831, 3-cyclobutyl-4-(4-{[3-(methoxymethyl)azetidin-1-yl]methyl}piperidin-1-yl)-1-phenyl-1H-pyrazolo[3,4-b]pyridine-6-carboxylic acid] | 402.5 | 407 | 231.3 | 1460 |
| O=C(O)c1cc(N2CCC(CN3CC[C@@H](F)C3)CC2)c2c(C3CCC3)nn(-c3ccccc3)c2n1 [compound 832, 3-cyclobutyl-4-(4-{[(3R)-3-fluoropyrrolidin-1-yl]methyl}piperidin-1-yl)-1-phenyl-1H-pyrazolo[3,4-b]pyridine-6-carboxylic acid] | 526.6 | 1070 | 250.5 | 151 |
| O=C(O)c1cc(N2CCC(CN3CC[C@H](F)C3)CC2)c2c(C3CCC3)nn(-c3ccccc3)c2n1 [compound 833, 3-cyclobutyl-4-(4-{[(3S)-3-fluoropyrrolidin-1-yl]methyl}piperidin-1-yl)-1-phenyl-1H-pyrazolo[3,4-b]pyridine-6-carboxylic acid] | 443.15 | 142 | 231.9 | 187 |
| O=C(O)c1cc(N2CCC(CN3CCCOCC3)CC2)c2c(C3CCC3)nn(-c3ccccc3)c2n1 [compound 834, 3-cyclobutyl-4-{4-[(1,4-oxazepan-4-yl)methyl]piperidin-1-yl}-1-phenyl-1H-pyrazolo[3,4-b]pyridine-6-carboxylic acid] | 403 | 114 | 227.9 | 241 |
| O=C(O)c1cc(N2CCC(CN3CC(OCC(F)F)C3)CC2)c2c(C3CCC3)nn(-c3ccccc3)c2n1 [compound 835, 3-cyclobutyl-4-(4-{[3-(2,2-difluoroethoxy)azetidin-1-yl]methyl}piperidin-1-yl)-1-phenyl-1H-pyrazolo[3,4-b]pyridine-6-carboxylic acid] | 466.9 | 67.6 | 291.5 | 163 |
| O=C(O)c1cc(N2CCC(CN3CC4(CCCOC4)C3)CC2)c2c(C3CCC3)nn(-c3ccccc3)c2n1 [compound 836, 3-cyclobutyl-4-{4-[(6-oxa-2-azaspiro[3.5]nonan-2-yl)methyl]piperidin-1-yl}-1-phenyl-1H-pyrazolo[3,4-b]pyridine-6-carboxylic acid] | 325.3 | 409 | 137.3 | 486 |
| O=C(O)c1cc(N2CCC(CN3CCN4C[C@@H](F)C[C@H]4C3)CC2)c2c(C3CCC3)nn(-c3ccccc3)c2n1 [compound 838, 3-cyclobutyl-4-(4-{[(7S,8aS)-7-fluorohexahydropyrrolo[1,2-a]pyrazin-2(1H)-yl]methyl]piperidin-1-yl)-1-phenyl-1H-pyrazolo[3,4-b]pyridine-6-carboxylic acid] | 411.8 | 115 | 240.3 | 269 |
| O=CN1CCCN(CC2CCN(c3cc(C(=O)O)nc4c3c(C3CCC3)nn4-c3ccccc3)CC2)CC1 [compound 839] | 437.3 | 180 | 275.7 | 921 |
| O=C(O)c1cc(N2CCC(CN3CCC4(CC3)COC4)CC2)c2c(C3CCC3)nn(-c3ccccc3)c2n1 [compound 840, 3-cyclobutyl-4-{4-[(2-oxa-7-azaspiro[3.5]nonan-7-yl)methyl]piperidin-1-yl}-1-phenyl-1H-pyrazolo[3,4-b]pyridine-6-carboxylic acid] | 368.8 | 250 | 164.4 | 400 |
| COC1CCN(CC2CCN(c3cc(C(=O)O)nc4c3c(C3CCC3)nn4-c3ccccc3)CC2)CC1 [compound 841, 3-cyclobutyl-4-{4-[(4-methoxypiperidin-1-yl)methyl]piperidin-1-yl}-1-phenyl-1H-pyrazolo[3,4-b]pyridine-6-carboxylic acid] | 457.1 | 314 | 225 | 532 |
| O=C(O)c1cc(N2CCC(CN3CCC4(COC4)C3)CC2)c2c(C3CCC3)nn(-c3ccccc3)c2n1 [compound 842, 3-cyclobutyl-4-{4-[(2-oxa-6-azaspiro[3.4]octan-6-yl)methyl]piperidin-1-yl}-1-phenyl-1H-pyrazolo[3,4-b]pyridine-6-carboxylic acid] | 370 | 582 | 162.5 | 628 |
| O=CN1CCN(CC2CCN(c3cc(C(=O)O)nc4c3c(C3CCC3)nn4-c3ccccc3)CC2)CC1 [compound 843, 3-cyclobutyl-4-{4-[(4-formylpiperazin-1-yl)methyl]piperidin-1-yl}-1-phenyl-1H-pyrazolo[3,4-b]pyridine-6-carboxylic acid] | 499.3 | 207 | 264.2 | 366 |
| O=C(O)c1cc(N2CCC(CN3CC4CC4C3)CC2)c2c(C3CCC3)nn(-c3ccccc3)c2n1 (stereo not shown) [compound 844, 4-{4-[(3-azabicyclo[3.1.0]hexan-3-yl)methyl]piperidin-1-yl}-3-cyclobutyl-1-phenyl-1H-pyrazolo[3,4-b]pyridine-6-carboxylic acid] | 429.2 | 206 | 184.9 | 210 |
| CN1C(=O)CN(CC2CCN(c3cc(C(=O)O)nc4c3c(C3CCC3)nn4-c3ccccc3)CC2)CC12COC2 [compound 845, 3-cyclobutyl-4-{4-[(5-methyl-6-oxo-2-oxa-5,8-diazaspiro[3.5]nonan-8-yl)methyl]piperidin-1-yl}-1-phenyl-1H-pyrazolo[3,4-b]pyridine-6-carboxylic acid] | 499.6 | 1080 | 273.7 | 1470 |
